Columns and labels:
[1] = Dynamic vapor sorption (DVS); type: physicochemical; conditions: 25° C.
Procedure: Sorption isotherms were determined using a SMS DVS Intrinsic moisture sorption analyzer controlled by SMS Analysis suite software. The sample temperature was maintained at 25° C. by the instrument controls. The humidity was controlled by mixing streams of dry and wet nitrogen, with a total flow rate of 200 mL/min. The relative humidity was measured by a calibrated Rotronic probe (dynamic range of 1.0-100% RH), located near the sample. The weight change, (mass relaxation) of the sample as a function of % RH was constantly monitored by the microbalance (accuracy ±0.005 mg).
Typically a 5-20 mg sample was placed on the tared mesh stainless steel basket under ambient conditions. The sample was loaded and unloaded at 40% RH and 25° C. (typical ambient conditions). A moisture sorption isotherm was performed as outlined below (2 scans giving 1 complete cycle). The standard isotherm was performed at 25° C. at 10% RH intervals over a 0-90% RH range.

| Structure (SMILES) | DVS water uptake [1] | melting point [°C] |
| --- | --- | --- |
| C(=C\[C@H]1CCNC1)/c1cncc(OC2CCOCC2)c1.O=C(O)C[C@H](O)C(=O)O [(R)-3-((E)-2-(pyrrolidin-3-yl)vinyl)-5-(tetrahydropyran-4-yloxy)pyridine mono-L-malate] | minimum water uptake up to 80% R.H. |  |
| C(=C\[C@H]1CCNC1)/c1cncc(OC2CCOCC2)c1.O=C(O)C(=O)O |  | 180 to 181 |

From patent US8153821B2, “Compounds” (priority 2008, dated 2012)
